Assay results as given in patent US20090312288A1 (TAKEDA PHARMACEUTICAL COMPANY LIMITED, priority 2008, published 2009).

Molecular target: Aurora B/INCENP (Homo sapiens, UniProt Q96GD4)
Test: Determination of inhibition of AIK: Aurora B/INCENP direct fluorescence polarization (IMAP) assay
Format: biochemical
Settings: 10 uM ATP, 0.8 nM Aurora B/INCENP; values given as bins; read-out: IC50 of Exemplified Compounds Against AIK B
Experimental: Detection of the reaction product is performed by addition of Progressive IMAP binding reagent (Molecular Devices). Reaction product may be determined quantitatively by FP using an Analyst HT plate reader (Molecular Devices) with an excitation wavelength at 485 nm and emission at 530 nm and using a Fluorescein 505 dichroic mirror.
The assay reaction may be initiated as follows: 2 ul of (3×) 300 nM Fl-Peptide/30 uM ATP was added to each well of the plate, followed by the addition of 2 ul of (3×) inhibitor (2 fold serial dilutions for 11 data points for each inhibitor) containing 15% DMSO. Two microliters of (3×) 2.4 nM AuroraB/INCENP solution may be added to initiate the reaction (final enzyme concentration was 0.8 nM for Aurora B/INCENP). The reaction mixture may then be incubated at room temperature for 45 min, and quenched and developed by addition of 20 ul of 1 to 400 diluted Progressive IMAP binding reagent in 1× proprietary Progressive IMAP binding buffer A. Fluorescence polarization readings of the resulting reaction mixtures may be measured after a 60-minute incubation at room temperature.
IC50 values may be calculated by non-linear curve fitting of the compound concentrations and fluorescent polarization values to the standard IC50 equation.

Chain of Aurora B/INCENP (Q96GD4 whole entry): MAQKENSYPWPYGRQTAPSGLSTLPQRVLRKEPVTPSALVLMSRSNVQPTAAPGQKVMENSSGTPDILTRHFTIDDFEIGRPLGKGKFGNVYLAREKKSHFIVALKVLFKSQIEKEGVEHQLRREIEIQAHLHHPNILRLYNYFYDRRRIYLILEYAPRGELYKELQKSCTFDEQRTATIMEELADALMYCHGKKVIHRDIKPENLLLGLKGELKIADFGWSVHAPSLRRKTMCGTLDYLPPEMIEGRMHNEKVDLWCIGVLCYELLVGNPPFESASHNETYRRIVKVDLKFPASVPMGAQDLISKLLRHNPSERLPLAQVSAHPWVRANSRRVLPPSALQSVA
Chain of Aurora B/INCENP (Q9NQS7 whole entry partner): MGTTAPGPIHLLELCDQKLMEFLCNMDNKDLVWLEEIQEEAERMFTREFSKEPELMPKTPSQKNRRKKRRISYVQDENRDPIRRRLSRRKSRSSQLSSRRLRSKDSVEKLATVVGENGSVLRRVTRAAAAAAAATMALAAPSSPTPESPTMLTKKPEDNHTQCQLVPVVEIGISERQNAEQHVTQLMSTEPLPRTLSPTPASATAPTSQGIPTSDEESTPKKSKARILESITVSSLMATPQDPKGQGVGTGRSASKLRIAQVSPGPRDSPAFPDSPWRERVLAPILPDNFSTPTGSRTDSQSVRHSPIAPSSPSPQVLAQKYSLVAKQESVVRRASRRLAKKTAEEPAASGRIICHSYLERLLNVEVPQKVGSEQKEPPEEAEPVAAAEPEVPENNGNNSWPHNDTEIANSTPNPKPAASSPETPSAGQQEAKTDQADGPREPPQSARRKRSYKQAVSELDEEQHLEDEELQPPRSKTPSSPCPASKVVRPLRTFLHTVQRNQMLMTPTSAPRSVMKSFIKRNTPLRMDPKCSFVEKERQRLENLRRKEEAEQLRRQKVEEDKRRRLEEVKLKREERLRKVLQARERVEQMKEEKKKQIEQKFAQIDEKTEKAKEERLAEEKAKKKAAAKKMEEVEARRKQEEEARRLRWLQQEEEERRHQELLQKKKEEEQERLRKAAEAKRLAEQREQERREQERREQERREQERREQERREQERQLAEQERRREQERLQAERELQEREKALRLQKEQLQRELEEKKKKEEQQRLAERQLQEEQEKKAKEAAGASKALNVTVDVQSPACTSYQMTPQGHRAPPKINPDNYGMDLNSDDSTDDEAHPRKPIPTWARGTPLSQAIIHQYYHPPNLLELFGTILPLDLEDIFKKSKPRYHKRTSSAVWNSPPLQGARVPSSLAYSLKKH

Row | Compound | IC50
1 | CCS(=O)(=O)c1cccc(-c2cnc(OCC3CCN(C)CC3)c3[nH]c4ncc(Cl)cc4c23)c1 [Compound 72, 3-Chloro-5-(3-ethanesulfonyl-phenyl)-8-(1-methyl-piperidin-4-ylmethoxy)-9H-dipyrido[2,3-b;4′,3′-d]pyrrole] | < 4 nM
2 | CCSc1ncc(-c2cccc(NC(=O)C3CC3)c2)c2c1[nH]c1ncc(C)cc12 [Compound 79] | > 13 nM
3 | CCS(=O)(=O)c1cccc(-c2cc(C(=O)N(C)CCN(C)C)c(C)c3[nH]c4ncc(C)cc4c23)c1 [Compound 91, N-(2-(dimethylamino)ethyl)-N-methyl-5-(3-(ethylsulfonyl)phenyl)-3,8-dimethyl-9H-pyrido[2,3-b]indole-7-carboxamide] | > 13 nM
4 | CCS(=O)(=O)c1cccc(-c2cc(C(=O)N3CCN(C)CC3)c(C)c3[nH]c4ncc(C)cc4c23)c1 [Compound 93] | > 13 nM
5 | CCS(=O)(=O)c1cccc(-c2cc(C(=O)NCCN3CCNCC3)c(C)c3[nH]c4ncc(C)cc4c23)c1 [Compound 94] | > 13 nM
6 | CCS(=O)(=O)c1cccc(-c2cc(C(=O)NCCCN3CCN(C)CC3)c(C)c3[nH]c4ncc(C)cc4c23)c1 [Compound 95, 5-(3-(ethylsulfonyl)phenyl)-3,8-dimethyl-N-(3-(4-methylpiperazin-1-yl)propyl)-9H-pyrido[2,3-b]indole-7-carboxamide] | > 13 nM
7 | CCS(=O)(=O)c1cccc(-c2cc(C(=O)N3CCC3)c(C)c3[nH]c4ncc(C)cc4c23)c1 [Compound 97, azetidin-1-yl(5-(3-(ethylsulfonyl)phenyl)-3,8-dimethyl-9H-pyrido[2,3-b]indol-7-yl)methanone] | > 13 nM
8 | CCS(=O)(=O)c1cccc(-c2cc(C(=O)NC[C@@H](C)O)c(C)c3[nH]c4ncc(C)cc4c23)c1 [Compound 99, (R)-5-(3-(ethylsulfonyl)phenyl)-N-(2-hydroxypropyl)-3,8-dimethyl-9H-pyrido[2,3-b]indole-7-carboxamide] | 8.6 to 13 nM
9 | CCS(=O)(=O)c1cccc(-c2cc(C(=O)NCC(C)(C)O)c(C)c3[nH]c4ncc(C)cc4c23)c1 [Compound 103, 5-(3-(ethylsulfonyl)phenyl)-N-(2-hydroxy-2-methylpropyl)-3,8-dimethyl-9H-pyrido[2,3-b]indole-7-carboxamide] | 8.6 to 13 nM
10 | CCS(=O)(=O)c1cccc(-c2cc(C(=O)NC3CCN(C(C)C)CC3)c(C)c3[nH]c4ncc(C)cc4c23)c1 [Compound 104, 5-(3-(ethylsulfonyl)phenyl)-N-(1-isopropylpiperidin-4-yl)-3,8-dimethyl-9H-pyrido[2,3-b]indole-7-carboxamide] | 8.6 to 13 nM
11 | CCN1CCC(NC(=O)c2cc(-c3cccc(S(=O)(=O)CC)c3)c3c([nH]c4ncc(C)cc43)c2C)CC1 [Compound 105, N-(1-ethylpiperidin-4-yl)-5-(3-(ethylsulfonyl)phenyl)-3,8-dimethyl-9H-pyrido[2,3-b]indole-7-carboxamide] | > 13 nM
12 | CCS(=O)(=O)c1cccc(-c2cc(C(=O)NCCOCC(F)(F)F)c(C)c3[nH]c4ncc(C)cc4c23)c1 [Compound 107] | 8.6 to 13 nM
13 | CCS(=O)(=O)c1cccc(-c2cc(C(=O)N[C@@H]3CCCNC3)c(C)c3[nH]c4ncc(C)cc4c23)c1 [Compound 108, (R)-5-(3-(ethylsulfonyl)phenyl)-3,8-dimethyl-N-(piperidin-3-yl)-9H-pyrido[2,3-b]indole-7-carboxamide] | > 13 nM
14 | CCS(=O)(=O)c1cccc(-c2cc(C(=O)NCCN(C)C)c(C)c3[nH]c4ncc(C)cc4c23)c1 [Compound 113] | 8.6 to 13 nM

Continued, values first:

Row | IC50 | Compound
15 | < 4 nM | CCS(=O)(=O)c1cccc(-c2cnc(OC[C@@H](C)O)c3[nH]c4ncc(Cl)cc4c23)c1 [Compound 73, (R)-1-[3-Chloro-5-(3-ethanesulfonyl-phenyl)-9H-dipyrido[2,3-b;4′,3′-d]pyrrol-8-yloxy]-propan-2-ol]
16 | < 4 nM | CCS(=O)(=O)c1cccc(-c2cnc(NC)c3[nH]c4ncc(C)cc4c23)c1 [Compound 74, 2-[5-(3-Ethanesulfonyl-phenyl)-3-methyl-9H-dipyrido[2,3-b;4′,3′-d]pyrrol-8-yl]methyl amine]
17 | < 4 nM | CCS(=O)(=O)c1cccc(-c2cnc(SC)c3[nH]c4ncc(C)cc4c23)c1 [Compound 75]
18 | 5.6 to 8.5 nM | CCSc1ncc(-c2cccc(S(=O)(=O)CC)c2)c2c1[nH]c1ncc(C)cc12 [Compound 76]
19 | 8.6 to 13 nM | CCS(=O)(=O)c1cccc(-c2cc(C(=O)NC3CCN(C)CC3)c(C)c3[nH]c4ncc(C)cc4c23)c1 [Compound 88, 5-(3-(ethylsulfonyl)phenyl)-3,8-dimethyl-N-(1-methylpiperidin-4-yl)-9H-pyrido[2,3-b]indole-7-carboxamide]
20 | 8.6 to 13 nM | CCS(=O)(=O)c1cccc(-c2cc(C(=O)NCCNC)c(C)c3[nH]c4ncc(C)cc4c23)c1 [Compound 89, N-(2-(methylamino)ethyl)-5-(3-(ethylsulfonyl)phenyl)-3,8-dimethyl-9H-pyrido[2,3-b]indole-7-carboxamide]
21 | 5.6 to 8.5 nM | CCS(=O)(=O)c1cccc(-c2cc(C(=O)NCCOC)c(C)c3[nH]c4ncc(C)cc4c23)c1 [Compound 90, N-(2-(methoxy)ethyl)-5-(3-(ethylsulfonyl)phenyl)-3,8-dimethyl-9H-pyrido[2,3-b]indole-7-carboxamide]
22 | 5.6 to 8.5 nM | CCS(=O)(=O)c1cccc(-c2cc(C(=O)N(C)C)c(C)c3[nH]c4ncc(C)cc4c23)c1 [Compound 92, N,N-dimethyl-5-(3-(ethylsulfonyl)phenyl)-3,8-dimethyl-9H-pyrido[2,3-b]indole-7-methylcarboxamide]
23 | 8.6 to 13 nM | CCS(=O)(=O)c1cccc(-c2cc(C(=O)N3CCOCC3)c(C)c3[nH]c4ncc(C)cc4c23)c1 [Compound 96]
24 | 5.6 to 8.5 nM | CCS(=O)(=O)c1cccc(-c2cc(C(=O)N3CCSC3)c(C)c3[nH]c4ncc(C)cc4c23)c1 [Compound 98, (5-(3-(ethylsulfonyl)phenyl)-3,8-dimethyl-9H-pyrido[2,3-b]indol-7-yl)(thaiazolidin-3-yl)methanone]
25 | 4 to 5.5 nM | CCS(=O)(=O)c1cccc(-c2cc(C(=O)NC[C@H](C)O)c(C)c3[nH]c4ncc(C)cc4c23)c1 [Compound 100, (S)-5-(3-(ethylsulfonyl)phenyl)-N-(2-hydroxypropyl)-3,8-dimethyl-9H-pyrido[2,3-b]indole-7-carboxamide]
26 | 4 to 5.5 nM | CCS(=O)(=O)c1cccc(-c2cc(C(=O)NCCO)c(C)c3[nH]c4ncc(C)cc4c23)c1 [Compound 101, 5-(3-(ethylsulfonyl)phenyl)-N-(2-hydroxyethyl)-3,8-dimethyl-9H-pyrido[2,3-b]indole-7-carboxamide]
27 | 4 to 5.5 nM | CCS(=O)(=O)c1cccc(-c2cc(C(=O)NCC(O)CO)c(C)c3[nH]c4ncc(C)cc4c23)c1 (stereo not drawn) [Compound 102, N-(2,3-dihydroxypropyl)-5-(3-(ethylsulfonyl)phenyl)-3,8-dimethyl-9H-pyrido[2,3-b]indole-7-carboxamide]
28 | 5.6 to 8.5 nM | CCS(=O)(=O)c1cccc(-c2cc(C(=O)Nc3nccs3)c(C)c3[nH]c4ncc(C)cc4c23)c1 [Compound 106]
29 | 5.6 to 8.5 nM | CCS(=O)(=O)c1cccc(-c2cc(C(=O)NCCOCCO)c(C)c3[nH]c4ncc(C)cc4c23)c1 [Compound 111]
30 | 5.6 to 8.5 nM | CCS(=O)(=O)c1cccc(-c2cc(C(=O)NCC3CCN(C)CC3)c(C)c3[nH]c4ncc(C)cc4c23)c1 [Compound 114, 5-(3-(ethylsulfonyl)phenyl)-3,8-dimethyl-N-((1-methylpiperidin-4-yl)methyl)-9H-pyrido[2,3-b]indole-7-carboxamide]
